Results published in patent US5475026A, “Agent for treating hepatic diseases” (Toray Industries, Inc., priority 1991, dated 1995).
Structures can show the parent of a compound that is named as a salt.

What was measured:
[1] = disorder caused by liver ischemia-recirculation in SD rats (Example 4); type: in vivo, SD male rats; conditions: oral, 30 minutes before ischemia; for GPT level in serum: two hours after recirculation, control 624
Procedure: Using 8-10 week-old SD male rats, the effectiveness of beraprost by oral administration against the disorder caused by liver ischemia-recirculationwas tested. The sodium salt of beraprost was used as the test compound. The test compound was administered 30 minutes before the induction of liver ischemia. Liver ischemia was induced by ventrotomy under anesthesia and closing the hepatic artery in the outer left leaf and the portal vein with clips. One hour after the clipping, the clips were removed to reopen the vessels. Two hours after recirculation, the GPT level in serum was measured to evaluate the degree of disorder.
As a control group, one group was treated in the same manner as described above except that distilled water was administered in place of sodium salt of beraprost.

[2] = increase in lipid peroxide level in the blood induced by carbon tetrachloride in SD rats (Example 3); type: in vivo, SD male rats; conditions: for Lipid Peroxides in serum / GPT level in serum / GOT level in serum: dose not given; for Lipid Peroxides in serum: control 7.10 ± 1.73, non-treated 3.40 ± 0.21; for GPT level in serum: control 3709 ± 406, non-treated 21 ± 2; for GOT level in serum: control 14689 ± 1577, non-treated 95 ± 5
Procedure: Using 7 week-old SD male rats, each group consisting of 6 rats, the effectiveness of beraprost by oral administration against the increase in the lipid peroxide level in the blood induced by carbon tetrachloride was tested. The sodium salt of beraprost was used as the test compound. 12.5% carbon tetrachloride solution in olive oil was intraperitoneally administered in a dose of 2 ml/kg to the rats which had been fasted for 24 hours. After the administration of the carbon tetrachloride solution, the rats were fasted for another 24 hours and then the levels of lipid peroxide, GOT and GPT in serum were measured. The test compound was administered one hour before (Test Group 1) or 6 hours after (Test Group 2) the administration of the carbon tetrachloride solution. As a control group, one group was treated in the same manner as described above except that the sodium salt of beraprost was not administered.

[3] = hepatic disorder induced by D-galactosamine in SD rats (Example 2); type: in vivo, SD male rats; conditions: oral
Procedure: Using 7 week-old SD male rats, the effectiveness of beraprost by oral administration against the hepatic disorder induced by D-galactosamine was tested. As the test compound, the sodium salt of beraprost was used. The test compound was administered in a dose of 0.3 mg/kg per each time at one hour before and 6 hours after the administration of D-galactosamine. D-galactosamine was subcutaneously administered in a dose of 1 g/kg. Forty eight hours after the administration of D-galactosamine, the GOT and glutamic acid-pyruvic acid transaminase (hereinafter referred to as "GPT") levels in serum, and the content of triglyceride in the livers were measured.
As a control group, one group was treated in the same manner as described above except that sodium salt of beraprost was not administered.

[4] = hepatic disorder induced by carbon tetrachloride in SD rats, serum GOT (Example 1); type: in vivo, Sprague-Dawley male rats; conditions: 0.3 mg/kg; for GOT level in serum: 24 h after
Procedure: Using 7 week-old Sprague-Dawley (hereinafter referred to as "SD") male rats, the effectiveness of beraprost against hepatic disorder induced by carbon tetrachloride was tested employing two administration routes, that is, oral and intraperitoneal administrations. Each group consisted of 6 rats. The test compound was the sodium salt of beraprost. The test compound was administered to the rats. which had been fasted for 24 hours, One hour after beraprost administration, 12.5% carbon tetrachloride solution in olive oil was administered in a dose of 2 ml/kg. The carbon tetrachloride solution was intraperitoneally administered to the rats to which the test compound was orally administered. The carbon tetrachloride solution was orally administered to the rats to which the test compound was intraperitoneally administered. After the administration of the carbon tetrachloride solution, the rats were fasted for 24 hours, and the glutamic acid-[…] transaminase (hereinafter referred to as "GOT") level in serum was measured. As a control group, one group was treated in the same manner as described above except that the sodium salt of beraprost was not administered. The results are shown in […]

[5] = Acute Toxicity Test (Example 5); parameters: species or system rats; conditions: rat, in vivo, 14 days, parentheses: 95% reliable limit, Litchfield-Wilcoxon Method
Procedure: (§1) Acute toxicity test was carried out using rats.
(§2) *Litchfield-Wilcoxon Method (see J. Pharmacol. Expl. Therap. Vol. 96, p.
(§3) The numbers in parentheses indicate 95% reliable limit.

[6] = tested on: rats; assay: Acute Toxicity Test (Example 5); conditions: rat, in vivo
Procedure: as §1, §2, §3

[7] = Test Group 1: oral, one hour before carbon tetrachloride, 24 h after
[8] = Test Group 2: oral, 6 hours after carbon tetrachloride, measured 24 h after carbon tetrachloride
[9] = oral, one hour before or 6 hours after carbon tetrachloride
[10] = 0.3 mg/kg twice, vs control group

## CC#CCC(C)[C@H](O)/C=C/[C@@H]1[C@H]2c3cccc(CCCC(=O)O)c3O[C@H]2C[C@H]1O (relative stereo) [sodium salt of beraprost]
[1]; 0.03 mg/kg
  GPT level in serum: 617 unit/l
[1]; 0.1 mg/kg
  GPT level in serum: 540 unit/l
[1]; 0.3 mg/kg
  GPT level in serum: 427 unit/l
[1]; 0.03-0.3 mg/kg
  decrease in GPT level in serum (in words): a decrease in GPT level in serum was observed
[2]; [7]
  Lipid Peroxides in serum: 2.44 ± 0.34 µM
  GPT level in serum: 1285 ± 344 unit/l
  GOT level in serum: 4428 ± 1649 unit/l
[2]; [8]
  Lipid Peroxides in serum: 2.82 ± 0.52 µM
  GPT level in serum: 1713 ± 258 unit/l
  GOT level in serum: 7672 ± 1834 unit/l
[3]; 0.3 mg/kg one hour before and 6 hours after D-galactosamine, 48 h, control 42.4 ± 6.0, non-treated 14.1 ± 0.6
  Triglyceride content in the liver: 12.4 ± 0.7 mg/g tissue
[3]; 0.3 mg/kg one hour before and 6 hours after D-galactosamine, 48 h, control 2552 ± 375, non-treated 79 ± 5
  GPT level in serum: 1356 ± 187 unit/l
[3]; 0.3 mg/kg one hour before and 6 hours after D-galactosamine, 48 h, control 5641 ± 858, non-treated 154 ± 7
  GOT level in serum: 3506 ± 377 unit/l
[4]; intraperitoneal, one hour before carbon tetrachloride (oral), control 11943 ± 1216
  GOT level in serum: 1889 ± 506 unit/l
[4]; oral and intraperitoneal, vs control
  decrease in GOT (in words): significant decrease in GOT was observed
[4]; oral, one hour before carbon tetrachloride (intraperitoneal), control 15647 ± 1588
  GOT level in serum: 3820 ± 642 unit/l

## CC#CCC(C)[C@H](O)/C=C/[C@@H]1[C@H]2c3cccc(CCCC(=O)O)c3O[C@H]2C[C@H]1O (relative stereo) [beraprost, (±)-(1R*,2R*, 3aS*,8bS*)-2,3,3a,8b-tetrahydro-2-hydroxy-1-[(E)-(3S*)-3-hydroxy-4methyl-1-ocetene-6-inyl]-1H-cyclopenta[b]benzofuran-5-butyric acid]
[2]; [9]
  decrease in GOT (in words): significant decrease
  decrease in GPT (in words): significant decrease
  decrease in lipid peroxide level in the blood (in words): significant decrease
[5]; iv, female
  LD50 at 336 h: 13 mg/kg
[5]; iv, male
  LD50 at 336 h: 18 mg/kg
[5]; po, female
  LD50 at 336 h: 12 mg/kg
[5]; po, male
  LD50 at 336 h: 15 mg/kg
[5]; sc, subcutaneous, female
  LD50 at 336 h: 7 mg/kg
[5]; sc, subcutaneous, male
  LD50 at 336 h: 13 mg/kg
[6]
  pathological symptoms: slight to medium congestion in lung, slight to medium bleeding in stomach glands and slight small intestine catarrh
  side effects: side effects are observed only at very high dose
[3]; [10]
  decrease in amount of triglycerides in the liver (in words): significant decreases
  decrease in serum GOT (in words): significant decreases
  decrease in serum GPT (in words): significant decreases
